Key:
primary rat VSMs = experiment: Rescue of sGC protein degradation by Bay 58-2667 in VSMs (Western blot); type: cell-based; settings: Cyb5R3 knockdown or ZINC 747 treated VSMs
Source text: FIG. 7. Bay 58-2667 rescues sGC protein degradation following Cyb5R3 knockdown or activity inhibition. a, Western blot analysis for sGC expression in primary rat VSMs treated with and without Bay 58-2667 following Cyb5R3 knockdown or with ZINC 39395747 (b). Quantification of sGC expression is shown in the graph below (n=2). Error bars represent s.e.m.
It was therefore tested if Bay 58 2667 could rescue the effects caused by decreased Cyb5R3 expression and activity.

oxidized sGC = experiment: Purified Cyb5R3/oxidized sGC cGMP assay stimulated with Bay 58-2667; type: biochemical; settings: 100 nM Bay 58-2667, in the presence of Cyb5R3
Description: FIG. 4. Purified Cyb5R3 directly reduces oxidized sGC resulting in limited stimulation by the sGC activator Bay 58-2667. Purified Cyb5R3, Cyb5b and oxidized sGC were mixed and incubated in trienthanolamine buffer, DTT (positive control), ZINC 747 (Cyb5R3 inhibitor), +/−NADH (required co-factor for Cyb5R3) in the absence of oxygen. Samples were then combined with GTP, and Mn^2+ followed by stimulation with 100 nM Bay 58-2667. After 5 min, reactions were stopped and samples were measured for cGMP. Quantification of cGMP is shown in the graph (n=2). Error bars represent s.e.m.

[1] = system: sGC-Cyb5R3 macromolecular complexes; experiment: Proximity ligation assay for sGC-Cyb5R3 complexes in VSMs; type: cell-based; settings: ODQ 10 μM, 10 min, primary rat aortic VSMs
Source text: FIG. 2. […] Cells were then subjected to a proximity ligation assay and imaged using confocal microscopy for sGC-Cyb5R3 macromolecular complexes (red punctates). Quantification of complexes per nuclei is shown in graph (n=3). **** indicates significance of <0.0001 and error bars are s.e.m. […] Following ODQ treatment, VSMs were fixed and subjected to a proximity ligation assay (PLA) to determine the association between oxidized sGC and Cyb5R3.

Cyb5R3 = settings: previous studies; cited from earlier work
purified human CyB5R3 [2] = target: T1, purified human CyB5R3 (Homo sapiens, UniProt P00387); experiment: NADH-ferricyanide reductase activity inhibition assay with purified Cyb5R3; type: biochemical; settings: 50 μM of each compound
T1 construct: His6 (N); made in house; host or cells: E. coli SoluBL21 (Genlantis)
T1 sequence (P00387 1-301): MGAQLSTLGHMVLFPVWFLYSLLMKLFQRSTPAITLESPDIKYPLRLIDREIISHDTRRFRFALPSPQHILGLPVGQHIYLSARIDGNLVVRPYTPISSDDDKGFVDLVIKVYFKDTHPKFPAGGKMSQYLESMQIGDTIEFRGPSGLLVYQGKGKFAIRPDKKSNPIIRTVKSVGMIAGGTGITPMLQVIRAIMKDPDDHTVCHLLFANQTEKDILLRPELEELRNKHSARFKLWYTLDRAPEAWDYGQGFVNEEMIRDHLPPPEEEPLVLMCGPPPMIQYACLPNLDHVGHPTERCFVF

purified human CyB5R3 [3] = target: T1, purified human CyB5R3; experiment: as above; type: biochemical; settings: for Cyb5R3 inhibitory activity, SAR trend of phenyl substituents: para position: carbon, chlorine, bromine
Description: FIG. 13. […] Primary screen using purified human CyB5R3 was incubated with each compound (500 μM) followed by activity measurements with an NADH-ferricyanide reductase assay. […] Purified proteins were prepared as previously described in Sparacino-Watkins et al. Briefly, human Cyb5R3 gene was cloned into the pET28a plasmid containing a His6 tag on the N-terminus of Cyb5R3. The plasmid was transformed into SoluBL21 cells (Genlantis) and protein purification was carried out as previously described. […] Chromatographic separation was conducted with an Äkta-Purifier FPLC (GE Healthcare Life Sciences, USA) running Unicorn software version 5.1. Metal affinity chromatography resin, Ni-NTA superflow (Qiagen), was packed into a XK 26/20 column (GE). Protein identity was confirmed with liquid chromatography and tandem mass spectrometry (LC-MS/MS, University of Pittsburgh Genome and Protein Core Facilities). The NADH-ferricyanide reductase activity for purified Cyb5R3 was assayed by spectrophotometric measurements using the rate of potassium ferricyanide reduction at 420 nm, according to Strittmatter and […]. […] The reaction was started by addition of cofactor NADH and reduction of ferricyanide was followed for 2 min by recording the absorbance decrease at 420 nm using Cary 50 spectrophotometer and small glass cuvettes with a 0.2 cm path length. Since NADH has partial reduction power independent of Cyb5R3, the reaction rate was corrected by subtracting the reaction rate of ferricyanide in the absence of enzyme. The enzyme activity was calculated using the extinction coefficient of 1.02 mM^-1 cm^-1 for the difference in absorbance between reduced and oxidized form of ferricyanide. In order to observe the inhibitory effect of each Cyb5R3 small molecule inhibitor, the compounds were pre-incubated with Cyb5R3 at 37° C. for 15 minutes followed by measurements in NADH-ferricyanide reductase activity as described above.

O=C(O)CCCCN(CCc1ccccc1OCc1ccc(CCc2ccccc2)cc1)Cc1ccc(C(=O)O)cc1 [Bay 58-2667, cinaciguat]
sGC protein levels (primary rat VSMs): restoration of sGC protein levels
cGMP production on Bay 58-2667 stimulation (oxidized sGC): does not increase cGMP production

O=c1onc2cnc3ccccc3n12 [ODQ, 1H-(1,2,4)oxadiazolo[4,3-a]quinoxalin-1-one]
number of sGC-Cyb5R3 macromolecular complexes [1]: increases number of macromolecular complexes

CCCc1cc(=O)[nH]c(=S)[nH]1 [PTU, propylthiouracil, reference compound]
concentration showing inhibition of Cyb5R3 (Cyb5R3): approximately 275 μM
inhibition of CyB5R3, secondary screen (purified human CyB5R3 [2]): little inhibition
inhibition at 500 µM (purified human CyB5R3 [3]; 500 μM of each compound, read-out: inhibition of CyB5R3, primary screen): ~100%

O=c1cc(CSc2ccccc2)[nH]c(=S)[nH]1 [ZINC05626394]
inhibition of CyB5R3, secondary screen (purified human CyB5R3 [2]): 100%
inhibition of CyB5R3, primary screen (purified human CyB5R3 [3]; 500 μM of each compound): 100%

C[C@@H]1N=C(CSc2ccccc2)CC(=O)N1 [ZINC05774833]
inhibition of CyB5R3, primary screen (purified human CyB5R3 [3]; 500 μM of each compound): abolished all inhibitory effects

Cc1ccc(SCc2cc(=O)[nH]c(=S)[nH]2)cc1 [ZINC06493891]
Cyb5R3 inhibitory activity, SAR trend of phenyl substituents (purified human CyB5R3 [3]): activity increases with atomic mass

CCCCCOc1cc(=O)[nH]c(=S)[nH]1 [ZINC13957379]
inhibition of CyB5R3, primary screen (purified human CyB5R3 [3]; 500 μM of each compound): 100%

O=c1cc(CSc2ccc(Br)cc2)[nH]c(=S)[nH]1 [ZINC15987502]
Cyb5R3 inhibitory activity, SAR trend of phenyl substituents (purified human CyB5R3 [3]): activity increases with atomic mass

O=c1cc(CSc2ccccc2)[nH]c(=O)[nH]1 [ZINC17744101]
inhibition of CyB5R3, secondary screen (purified human CyB5R3 [2]): 50%
inhibition of CyB5R3, primary screen (purified human CyB5R3 [3]; 500 μM of each compound): 100%

CC(C)SCc1cc(=O)[nH]c(=S)[nH]1 [ZINC31773411]
inhibition of CyB5R3, primary screen (purified human CyB5R3 [3]; 500 μM of each compound): 100%
